Test results: paper PMC6459026 (European journal of medicinal chemistry, 2019)

Key:
[1] = target: HIV-1 RT pol (Human immunodeficiency virus type 1 group M subtype B, UniProt P04585); experiment: RT polymerase assay; format: biochemical
[2] = target: HIV-1 IN (INST activity) (Human immunodeficiency virus type 1 group M subtype B, UniProt P04585); experiment: biochemical

SMILES	IC50 [1]	IC50 [2]
Cc1ccc(C(=O)c2cc(=O)n(O)c(=O)[nH]2)cc1 [Compound 7a, 3-Hydroxy-6-(4-methylbenzoyl)pyrimidine-2,4(1H,3H)-dione]	> 10 µM	–
O=C(c1ccc(C(F)(F)F)cc1)c1cc(=O)n(O)c(=O)[nH]1 [Compound 7b, 3-Hydroxy-6-(4-(trifluoromethyl)benzoyl)pyrimidine-2,4(1H,3H)-dione]	> 10 µM	–
O=C(c1ccc(F)cc1)c1cc(=O)n(O)c(=O)[nH]1 [Compound 7c, 6-(4-Fluorobenzoyl)-3-hydroxypyrimidine-2,4(1H,3H)-dione]	> 10 µM	–
COC(=O)c1ccc(C(=O)c2cc(=O)n(O)c(=O)[nH]2)cc1 [Compound 7d, Methyl 4-(1-hydroxy-2,6-dioxo-1,2,3,6-tetrahydropyrimidine-4-carbonyl)benzoate]	> 10 µM	–
Cc1cc(C)cc(C(=O)c2cc(=O)n(O)c(=O)[nH]2)c1 [Compound 7e, 6-(3,5-Dimethylbenzoyl)-3-hydroxypyrimidine-2,4(1H,3H)-dione]	> 10 µM	–
Cc1ccc(-c2ccc(C(=O)c3cc(=O)n(O)c(=O)[nH]3)cc2)cc1 [Compound 8a, 3-Hydroxy-6-(4’-methyl-[1,1’-biphenyl]-4-carbonyl)pyrimidine-2,4(1H,3H)-dione]	> 10 µM	–
O=C(c1ccc(-c2ccc(C(F)(F)F)cc2)cc1)c1cc(=O)n(O)c(=O)[nH]1 [Compound 8b, 3-Hydroxy-6-(4’-(trifluoromethyl)-[1,1’-biphenyl]-4-carbonyl)pyrimidine-2,4(1H,3H)-dione]	> 10 µM	> 100 µM
O=C(c1ccc(-c2ccc(F)cc2)cc1)c1cc(=O)n(O)c(=O)[nH]1 [Compound 8c, 6-(4’-Fluoro-[1,1’-biphenyl]-4-carbonyl)-3-hydroxypyrimidine-2,4(1H,3H)-dione]	> 10 µM	–
COC(=O)c1ccc(-c2ccc(C(=O)c3cc(=O)n(O)c(=O)[nH]3)cc2)cc1 [Compound 8d, Methyl 4’-(1-hydroxy-2,6-dioxo-1,2,3,6-tetrahydropyrimidine-4-carbonyl)-[1,1’-biphenyl]-4-carboxylate]	> 10 µM	–
Cc1cc(C)cc(-c2ccc(C(=O)c3cc(=O)n(O)c(=O)[nH]3)cc2)c1 [Compound 8e, 6-(3’,5’-Dimethyl-[1,1’-biphenyl]-4-carbonyl)-3-hydroxypyrimidine-2,4(1H,3H)-dione]	> 10 µM	–
O=C(c1ccc(-c2ccccc2)cc1)c1cc(=O)n(O)c(=O)[nH]1 [Compound 8f, 6-([1,1’-Biphenyl]-4-carbonyl)-3-hydroxypyrimidine-2,4(1H,3H)-dione]	> 10 µM	–
O=C(c1cccc(-c2ccccc2)c1)c1cc(=O)n(O)c(=O)[nH]1 [Compound 8g, 6-([1,1’-Biphenyl]-3-carbonyl)-3-hydroxypyrimidine-2,4(1H,3H)-dione]	> 10 µM	–
COc1ccc(-c2ccc(C(=O)c3cc(=O)n(O)c(=O)[nH]3)cc2)cc1 [Compound 8h, 3-Hydroxy-6-(4’-methoxy-[1,1’-biphenyl]-4-carbonyl)pyrimidine-2,4(1H,3H)-dione]	–	> 100 µM
O=C(c1ccc(-c2ccc(Cl)c(F)c2)cc1)c1cc(=O)n(O)c(=O)[nH]1 [Compound 8l, 6-(4’-Chloro-3’-fluoro-[1,1’-biphenyl]-4-carbonyl)-3-hydroxypyrimidine-2,4(1H,3H)-dione]	> 10 µM	–
CCOCn1c(C(=O)c2ccc(-c3ccccc3)cc2)cc(=O)n(O)c1=O [Compound 16f, 6-([1,1’-Biphenyl]-4-carbonyl)-1-(ethoxymethyl)-3-hydroxypyrimidine-2,4(1H,3H)-dione]	> 10 µM	> 100 µM
CCOCn1c(C(=O)c2cccc(-c3ccccc3)c2)cc(=O)n(O)c1=O [Compound 16g, 6-([1,1’-Biphenyl]-3-carbonyl)-1-(ethoxymethyl)-3-hydroxypyrimidine-2,4(1H,3H)-dione]	> 10 µM	> 100 µM
CCOCn1c(C(C#N)c2cc(C)cc(C)c2)cc(=O)n(O)c1=O (centres unmarked) [Compound 17e, 2-(3,5-Dimethylphenyl)-2-(3-(ethoxymethyl)-1-hydroxy-2,6-dioxo-1,2,3,6-tetrahydropyrimidin-4-yl)acetonitrile]	> 10 µM	> 100 µM
CCOCn1c(C(C#N)c2ccc(-c3ccccc3)cc2)cc(=O)n(O)c1=O (centres unmarked) [Compound 18f, 2-([1,1’-Biphenyl]-4-yl)-2-(3-(ethoxymethyl)-1-hydroxy-2,6-dioxo-1,2,3,6-tetrahydropyrimidin-4-yl)acetonitrile]	> 10 µM	> 100 µM
